Columns and labels:
[1] = test system: NCR; test: Limit of response rating of squash blossom volatiles on sticky traps (Example 5); assay type: in vivo, Diabrotica barberi; details: 24 hour; four replicate traps; 0.01 mg to 200 mg
Method in brief: (§1)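 Adult Diabrotica beetles were tested against cylindrical sticky traps baited with cotton wicks holding 0.01 mg to 200 mg of individual Cucurbita maxima blossom volatiles. Response limit rated by trap catch.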

[2] = test system: WCR; test: as above; assay type: in vivo, Diabrotica virgifera virgifera; details: 24 hour; four replicate traps; 0.01 mg to 200 mg
Method in brief: as §1

[3] = test system: NCR; test: Attraction to baited traps relative to controls (summary); assay type: in vivo, Diabrotica barberi; details: summary statement
Excerpt: 4-Methylphenylethanol, 4-chlorophenylethanol, 4-fluorophenylethanol, phenylethanol, phenylpropanol, 4-methoxyphenylethanol, 3-methoxyphenylethanol, 2-methoxyphenylethanol, 4-methoxyphenylpropanol, phenylethylamine, and phenylpropylamine attract NCR at rates approximately 5-50 times controls.

[4] = test system: southern corn rootworm (SCR) adults; test: Sticky trap attraction in sweet corn plots (Example 1); assay type: in vivo, Diabrotica undecimpunctata howardi; details: August first year, single compounds 100 mg per trap
Method in brief: (§2)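 Field trapping in sweet-corn plots beside a Blue Hubbard squash trap crop; lures on mineral-oil-impregnated cotton wicks atop sticky paper-carton traps on 1-m posts, 4 replicates in randomized complete blocks. Beetles counted after 24 h; VIPAE/VIP/TIC mixtures and single components at 1–300 mg per trap, ANOVA/Duncan at P=0.05.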

[5] = test system: western corn rootworm (WCR) adults; test: as above; assay type: in vivo, Diabrotica virgifera virgifera; details: August first year, single compounds 100 mg per trap
Method in brief: as §2

[6] = South Farms, 24 h, mixture 20 mg of each component, n = 4

| Compound | Attractant Rating NCR (by limit of response) [1] | Attractant Rating WCR (by limit of response) [2] | rate of attraction of NCR relative to controls [3] | Mean number of SCR per trap (±standard deviation) [4, 6] [per trap] | relative percent activity of the mean SCR trap catch as compared with the highest mean value in the column ([4]; mixture 20 mg each component) [%] | Mean number of WCR per trap (±standard deviation) [5, 6] [per trap] | relative percent activity of the mean WCR trap catch as compared with the highest mean value in the column ([5]; mixture 20 mg each component) [%] |
| --- | --- | --- | --- | --- | --- | --- | --- |
| OCC=Cc1ccccc1 [XVIII, cinnamyl alcohol] | +3 (3-10) | +1 (30-100) | 5-20 times | – | – | – | – |
| C=CCc1ccc(O)c(OC)c1 [XXIV, eugenol] | – | – | – | 2.8 ± 2.8 | 13 | 2.8 ± 1.0 | 41 |
